# Experimental data: patent US20260263384A1, “TRANSDERMAL ELLECTRICALLY CONDUCTIVE PATCH” (KIKKOMAN CORPORATION, priority 2023, published 2026)
# Counter-ions that a name gives are not always drawn.
# Tests used:
# [1] = cited from earlier work
# [2] = system: skin-mimicking three-dimensional epidermal models (EPI-MODEL12, J-TEC); assay: Evaluation of electro-osmosis (electro-permeation): drug permeation through three-dimensional epidermal model into reservoir solution with vs without electric current (permeation evaluation system 1), HPLC; settings: ketoprofen solution pH 6.6, 20 μA for 2 hours
# Experimental: A specific method for evaluating drug permeation into the skin is described. A 7 mm×7 mm carbon cloth is coated with 80 µl of a solution of multi-walled carbon nanotubes in two separate instances and dried at 60° C. The carbon cloth is washed with pure water and further dried to prepare an electrode to be provided directly on cells. Skin-mimicking three-dimensional epidermal models (EPI-MODEL12, J-TEC) are used as the cells. Phosphate-buffered saline (PBS) is used as a reservoir solution. An Ag/AgCl electrode is introduced into the reservoir solution. Subsequently, each electrode is electrically connected to a […] source meter. A drug is dissolved in an appropriate solution. The drug solution of 400 µl is added dropwise to the cells, and the carbon cloth electrode is soaked therein. First, an electrode on the cells is connected to the positive electrode, and the Ag/AgCl electrode on the reservoir solution side is connected to the negative electrode. […] In the same manner, comparative experiment of adding 400 µl of the same drug solution dropwise to the cells is performed without the application of the electric current. […] Analysis can be performed by HPLC analysis, mass analysis, or other means. The amount of permeation with the application of the electric current is compared with that without the application of the electric current. […]
Compound,pKa [1],amount of permeation compared with a system without applying an electric current (100%) ([2]; electrode on the cells connected to positive electrode) [%],"amount of permeation relative to that measured in a system without applying an electric current (100%) ([2]; reversed direction, electrode on the cells connected to negative electrode) [%]"
CCCCNc1ccc(C(=O)OCCN(C)C)cc1 [tetracaine hydrochloride],8.4,–,–
CC(C(=O)O)c1cccc(C(=O)c2ccccc2)c1 (stereo not drawn) [ketoprofen],–,306,231
